# Experimental data from patent publication US9034886B2, “4-aminoquinazoline derivatives and uses thereof” (Shanghai Institute of Pharmaceutical Industry, priority 2011, dated 2015).
# pIC50: −log10 of the molar value.
# How the values were obtained:
# [1] = system: PC-3 human prostate cancer; assay: In vitro anti-proliferative effect, CCK-8 method, PC-3; format: cell-based; conditions: Homo sapiens, PC-3 cell strain, CCK-8 method; for inhibition at 10 µM: compound at 10 μM; for inhibition at 100 µM: compound at 100 μM
# Protocol: (§1) The inhibitory activities of the compounds towards Hut78 T lymphocytic leukemia cells, Jurkat E6-1 human T-cell lymphoma, PANC-1 human pancreatic cancer cells, A549 human lung cancer cells, K562 human chronic myelogenous leukemia cells, Hep3B2.1-7 human liver cancer cells, MDA-MB-435s human breast cancer cells. Colo320 human colorectal cancer cell lines, and PC-3 human prostate cancer at two concentrations of 100 μM and 10 μM were determined. The inhibition percentages were obtained through CCK-8 method.
# [2] = system: Hep3B2.1-7 human liver cancer cells; assay: In vitro anti-proliferative effect, CCK-8 method, Hep3B; format: cell-based; conditions: Homo sapiens, Hep3B cell strain, CCK-8 method; for inhibition at 10 µM: compound at 10 μM; for inhibition at 100 µM: compound at 100 μM
# Protocol: as §1
# [3] = system: HDACs; assay: In vitro inhibition of HDACs (HDAC Inhibitor Drug Screening Kit, Biovision K340-100); format: biochemical; conditions: for inhibitory activity on HDACs compared with MS-275: concentrations of 2 mM, 200 μM, and 40 μM
# Protocol: The in vitro inhibitory activities of the compounds towards HDACs were tested according to the instructions in the HDAC Inhibitor Drug Screening Kit (Biovision/Catalog #K340-100).
# (1) The compounds to be tested were each individually prepared as 2 mM, 200 μM and 40 μM solutions and their inhibitory activities at these concentrations were tested.
# [4] = system: Hut78 T lymphocytic leukemia cells; assay: In vitro anti-proliferative effect, CCK-8 method, Hut78; format: cell-based; conditions: Homo sapiens, HuT78, read-out: Hut-78 (inhibition %)
# Protocol: as §1
# [5] = system: MDA-MB-435s human breast cancer cells; assay: In vitro anti-proliferative effect, CCK-8 method, MDA-MB-435s; format: cell-based; conditions: Homo sapiens, MDA-MB-435S
# Protocol: as §1
# [6] = system: Jurkat E6-1 human T-cell lymphoma; assay: In vitro anti-proliferative effect, CCK-8 method, Jurkat E6-1; format: cell-based; conditions: Homo sapiens, Jurkat E6.1
# Protocol: as §1
# [7] = biological target: HDAC1 (Homo sapiens (Human), UniProt Q13547); assay: In vitro inhibition of subtype HDAC1 (HDAC1 Inhibitor Drug Screening Kit, Biovision); format: biochemical; conditions: for inhibition at 1 µM / inhibition at 10 µM: read-out: % Inhibition towards HDAC1
# HDAC1, sequence (Q13547 whole entry): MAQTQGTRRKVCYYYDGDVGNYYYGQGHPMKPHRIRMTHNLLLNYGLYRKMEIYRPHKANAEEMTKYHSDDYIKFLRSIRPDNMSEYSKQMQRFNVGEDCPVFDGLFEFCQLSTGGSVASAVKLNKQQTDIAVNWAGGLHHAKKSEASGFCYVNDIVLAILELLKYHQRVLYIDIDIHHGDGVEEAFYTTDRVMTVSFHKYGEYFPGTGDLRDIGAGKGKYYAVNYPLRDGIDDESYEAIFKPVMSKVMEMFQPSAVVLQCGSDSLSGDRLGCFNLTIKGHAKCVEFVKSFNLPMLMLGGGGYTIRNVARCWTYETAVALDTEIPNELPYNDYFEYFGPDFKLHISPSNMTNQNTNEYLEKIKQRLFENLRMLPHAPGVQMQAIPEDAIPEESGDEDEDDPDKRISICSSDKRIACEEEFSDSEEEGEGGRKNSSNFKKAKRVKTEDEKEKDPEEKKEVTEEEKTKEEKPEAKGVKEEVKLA
# Protocol: The in vitro inhibitory activities of the compounds towards the subtype HDAC1 were tested according to the instructions in the HDAC1 Inhibitor Drug Screening Kit (Biovision).
# (1) The compounds to be tested were each individually prepared as 10 μM and 1 μM solutions and their inhibitory activities at these concentrations were tested.
# Each dilution sample was placed in two wells and the enzyme inhibition IC50 of the compound was tested.
# [8] = system: Colo320 human colorectal cancer cell lines; assay: In vitro anti-proliferative effect, CCK-8 method, Colo320; format: cell-based; conditions: Homo sapiens, COLO 320, Colo320 cell strain, CCK-8 method; for inhibition at 10 µM: compound at 10 μM; for inhibition at 100 µM: compound at 100 μM
# Protocol: as §1
# [9] = system: A549 human lung cancer cells; assay: In vitro anti-proliferative effect, CCK-8 method, A549; format: cell-based; conditions: Homo sapiens, A549
# Protocol: as §1
# [10] = system: K562 human chronic myelogenous leukemia cells; assay: In vitro anti-proliferative effect, CCK-8 method, K562; format: cell-based; conditions: Homo sapiens, K562
# Protocol: as §1
# [11] = system: PANC-1 human pancreatic cancer cells; assay: In vitro anti-proliferative effect, CCK-8 method, PANC-1; format: cell-based; conditions: Homo sapiens, PANC-1
# Protocol: as §1
Compound,inhibition at 10 µM [1] [%],inhibition at 100 µM [1] [%],inhibition at 10 µM [2] [%],inhibition at 100 µM [2] [%],Inhibition percentage (%) towards HDACs ([3]; 40 μM) [%],Inhibition percentage (%) towards HDACs ([3]; 200 μM) [%],Inhibition percentage (%) towards HDACs ([3]; 2 mM) [%],inhibition at 10 µM [4] [%],inhibition at 100 µM [4] [%],inhibition at 10 µM [5] [%],inhibition at 100 µM [5] [%],inhibition at 10 µM [6] [%],inhibition at 100 µM [6] [%],inhibition at 10 µM [8] [%],inhibition at 100 µM [8] [%],inhibition at 10 µM [9] [%],inhibition at 100 µM [9] [%],inhibition at 10 µM [10] [%],inhibition at 100 µM [10] [%],inhibition at 10 µM [11] [%],other results
"Nc1ccccc1NC(=O)c1ccc(Nc2ncnc3ccc(F)cc23)cc1 [Compound V-12, N-(2-aminophenyl)-4-(6-fluoroquinazoline-4-amino)benzamide]",25.5,61.3,4.7,67.1,16.8,43.0,85.2,62.5,62.5,5.7,77.2,25,87.4,2.4,46.1,-9,55.1,49.3,69.8,15.8,pIC50 [3]: 6.04; inhibition at 1 µM [7]: 15%; inhibition at 10 µM [7]: 49.1%; inhibition at 100 µM [11]: 21.9%
COc1cc2ncnc(NCc3ccc(C(=O)Nc4ccncc4N)cc3)c2cc1OCCCN1CCOCC1 [Compound V-42],,,,,17.2,46.7,90.6,,,,,,,,,,,,,,pIC50 [3]: 5.78; inhibitory activity according to in vitro IC50 value against HDACs compared with MS-275 [3]: better inhibitory activities than MS-275; inhibitory activity on HDACs compared with MS-275 [3]: significantly stronger inhibitory activities than MS-275
"CC(=O)Nc1ccc2ncnc(NCc3ccc(C(=O)Nc4cc(-c5ccco5)ccc4N)cc3)c2c1 [Compound V-48, N-[2-amino-5-(2-furyl)phenyl]-4-[(6-acetamidoquinazoline-4-amino)methyl]benzamide]",-16.4,14.8,-14,20.5,14.0,42.2,85.0,75.4,87.4,10,26.6,9.7,61.9,2.9,17.9,3.9,9.8,20,57.2,-2.2,inhibition at 100 µM [11]: 51.8%
"CC(=O)Nc1ccc2ncnc(Nc3ccc(C(=O)Nc4ccccc4N)cc3)c2c1 [Compound V-21, N-(2-aminophenyl)-4-(6-acetamidoquinazoline-4-amino)benzamide]",40.1,64.2,11,68.1,10.1,39.1,79.2,65.2,75.6,25.2,88.8,49.3,89.7,9.5,45.9,17.1,96.4,52.2,85.2,12.5,inhibition at 1 µM [7]: 55%; inhibition at 10 µM [7]: 86.9%; inhibitory activity against HDAC1 compared with MS-275 ([7]; both concentrations 10 μM and 1 μM): superior to that of MS-275; inhibition at 100 µM [11]: 33.3%
"COc1cc2ncnc(NCc3ccc(C(=O)Nc4cc(-c5cccs5)ccc4N)cc3)c2cc1OC [Compound V-31, N-[2-amino-5-(2-thienyl)phenyl]-4-[(6,7-dimethoxyquinazoline-4-amino)methyl]benzamide]",6.3,38.8,-5,51.7,3.5,17.3,69.8,28.2,95.8,24.2,89.2,62.4,93.7,76.3,77,56.3,88.8,27.9,67.7,20.8,inhibition at 100 µM [11]: 50.6%
"Nc1ccc(F)cc1NC(=O)c1ccc(Nc2ncnc3ccccc23)cc1 [Compound V-3, N-(2-amino-5-fluorophenyl)-4-(quinazoline-4-amino)benzamide]",0.6,36.9,-12.3,59.2,9.5,36.0,78.2,18.2,92.9,4.5,85.5,27.1,96,-7.1,47.2,-7.8,72.3,51,85.1,5.7,inhibition at 100 µM [11]: 5.5%
"Nc1ccccc1NC(=O)c1ccc(CNc2ncnc3ccc([N+](=O)[O-])cc23)cc1 [Compound V-37, N-(2-aminophenyl)-4-[(6-nitroquinazoline-4-amino)methyl]benzamide]",,,,,24.0,56.1,65.7,,,,,,,,,,,,,,
"COc1ccc2ncnc(NCc3ccc(C(=O)Nc4ccccc4N)cc3)c2c1 [Compound V-33, N-(2-aminophenyl)-4-[(6-methoxyquinazoline-4-amino)methyl]benzamide]",,,,,53.2,66.8,88.8,,,,,,,,,,,,,,pIC50 [3]: 6.00; inhibitory activity according to in vitro IC50 value against HDACs compared with MS-275 [3]: better inhibitory activities than MS-275; inhibitory activity on HDACs compared with MS-275 [3]: significantly stronger inhibitory activities than MS-275
"COc1cccc2c(NCc3ccc(C(=O)Nc4cc(F)ccc4N)cc3)ncnc12 [Compound V-35, N-(2-amino-5-fluorophenyl)-4-[(8-methoxyquinazoline-4-amino)methyl]benzamide]",,,,,10.1,47.8,81.8,,,,,,,,,,,,,,
"COc1ccc2c(NCc3ccc(C(=O)Nc4ccccc4N)cc3)ncnc2c1 [Compound V-32, N-(2-aminophenyl)-4-[(7-methoxyquinazoline-4-amino)methyl]benzamide]",,,,,2.2,3.1,42.5,,,,,,,,,,,,,,
"COCCOc1cc2ncnc(NCc3ccc(C(=O)Nc4ccncc4N)cc3)c2cc1OCCOC [Compound V-39, N-(2-amino-4-pyridyl)-4-[(6,7-dimethoxyethoxyquinazoline-4-amino)methyl]benzamide]",,,,,34.3,58.0,85.3,,,,,,,,,,,,,,
"Nc1ccccc1NC(=O)c1ccc(Nc2ncnc3ccccc23)cc1 [Compound V-1, N-(2-aminophenyl)-4-(quinazoline-4-amino)benzamide]",79.5,91.5,2.6,37.4,9.4,19.8,65.2,36,67.2,26.7,87.5,48.5,79.3,33.7,78.3,50.6,89.7,22.4,30.8,40.2,inhibition at 100 µM [11]: 65.4%
